# Data as given in patent US20100029775A1, “RENIN INHIBITORS FOR THE PREVENTION AND TREATMENT OF HYPERTENSION IN OBESE PATIENTS” (priority 2006, published 2010).
# Marks after values point to notes of the source that are not given here.
# Test system: obese patients with hypertension
# Assay: Randomized, double-blind, multicenter clinical study: add-on treatment in grade 3 obese hypertensive patients who did not respond to HCTZ 25 mg
# Assay type: in vivo, human
# Conditions: for BP control rate (in words): grade 3 obesity patients, comparison between treatment groups
# Text: The effect of Aliskiren to treat hypertension in patients with obesity was investigated in a clinical study. […] [table]
# [1] = Grade 3 obesity (BMI ≧ 40 kg/m^2), least squares mean ± SEM change from baseline at wk 12 endpoint (ANCOVA; intent-to-treat), add-on to HCTZ 25 mg, dose doubled after 4 weeks
Structure (SMILES),"Change in DBP, mmHg [1]","Change in SBP, mmHg [1]","BP control rate (Grade 3 obesity (BMI ≧ 40 kg/m^2), patients reaching <140/90 mmHg, wk 12 endpoint, logistic regression model)",BP control rate (in words)
"NS(=O)(=O)c1cc2c(cc1Cl)NCNS2(=O)=O [PBO/HCTZ, hydrochlorothiazide]",−5.9 ± 2.2 mmHg,−7.1 ± 3.2 mmHg,16.7%**,lower control rates
"COCCCOc1cc(C[C@@H](C[C@H](N)[C@@H](O)C[C@H](C(=O)NCC(C)(C)C(N)=O)C(C)C)C(C)C)ccc1OC [aliskiren, 2(S),4(S),5(S),7(S)—N-(3-amino-2,2-dimethyl-3-oxopropyl)-2,7-di(1-methylethyl)-4-hydroxy-5-amino-8-[4-methoxy-3-(3-methoxy-propoxy)phenyl]-octanamide]",–,–,–,highly effective BP control
